# Test results: US20080248486A1, “Type Pept1 Protein Assay” (Iongate Biosciences GmbH, priority 2004, published 2008)
# Tests used:
# [1] = tested on: peptide transporter; conditions: Meredith et al. 1998; cited from earlier work
# [2] = target: T1, PepT1 (Homo sapiens, UniProt P46059); design: host or cells: oocytes; conditions: oocytes; cited from earlier work
# T1 sequence (P46059 1-708): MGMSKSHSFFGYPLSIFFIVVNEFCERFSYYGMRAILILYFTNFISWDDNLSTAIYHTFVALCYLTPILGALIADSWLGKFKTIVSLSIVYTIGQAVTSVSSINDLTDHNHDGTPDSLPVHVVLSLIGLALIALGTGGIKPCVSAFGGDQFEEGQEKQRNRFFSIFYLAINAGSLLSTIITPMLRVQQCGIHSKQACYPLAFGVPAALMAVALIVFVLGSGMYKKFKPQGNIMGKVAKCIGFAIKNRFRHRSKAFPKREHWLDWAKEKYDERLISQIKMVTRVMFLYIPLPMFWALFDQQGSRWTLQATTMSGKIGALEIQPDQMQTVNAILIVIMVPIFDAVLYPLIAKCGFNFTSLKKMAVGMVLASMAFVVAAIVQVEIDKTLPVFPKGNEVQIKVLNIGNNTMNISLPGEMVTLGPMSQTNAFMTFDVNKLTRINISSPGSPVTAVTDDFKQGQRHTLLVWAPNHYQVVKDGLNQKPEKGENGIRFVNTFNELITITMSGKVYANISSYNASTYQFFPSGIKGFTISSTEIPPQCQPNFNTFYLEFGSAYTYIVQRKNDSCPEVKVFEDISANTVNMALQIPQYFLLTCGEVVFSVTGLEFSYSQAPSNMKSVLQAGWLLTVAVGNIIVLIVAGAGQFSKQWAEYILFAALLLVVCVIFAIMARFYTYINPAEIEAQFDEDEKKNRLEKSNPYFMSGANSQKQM
# [3] = Solubility of glibenclamide; assay type: physicochemical
# [4] = target: T1, PepT1; assay: Activity measurement with glibenclamide on protein-loaded sensor chip (SurfE2R system), current amplitude on change from non-activating to activating solution; assay type: biochemical; design: expressed in transfected cells; host or cells: CHO cells (plasma membrane preparation); conditions: 100 μM glibenclamide in both activating and non-activating solution; CHO plasma membrane preparation on sensor chip; FIG. 1
# Protocol: The measurements were carried out as above, although both solutions contained activating and non-activating solution and additionally 100 μM glibenclamide.
smiles,measurement,setting,value
NCc1ccc(C(=O)O)cc1 [4-aminomethyl benzoic acid],Affinity to the transporter,[1],only a slight affinity
COc1ccc(Cl)cc1C(=O)NCCc1ccc(S(=O)(=O)NC(=O)NC2CCCCC2)cc1 [glibenclamide],IC50,[2],~100 µM
same,Solubility,[3],poor solubility
same,Effect on current amplitude (PepT1 transport current I(t)),[4],inhibition of the current amplitude
